Data as given in PubChem BioAssay (NCI).
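In this assay, cells in 96-well plates receive the compound at five concentrations for 48 hours. Endpoints are linearly interpolated between the surrounding concentrations. GI50 is the concentration that inhibits growth by half. Definition used: TGI = concentration required for complete inhibition of growth.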

Tests used:
Experiment in all cases: NCI-60 cell line screen, 48 h
786-0 renal = test system: 786-0 renal
HOP-92 NSCLC = test system: HOP-92 NSCLC
HT29 colon = test system: HT29 colon
M14 melanoma = test system: M14 melanoma
MDA-MB-435 = test system: MDA-MB-435
SK-MEL-5 melanoma = test system: SK-MEL-5 melanoma
SK-OV-3 ovarian = test system: SK-OV-3 ovarian
SN12C renal = test system: SN12C renal
SNB-75 CNS = test system: SNB-75 CNS
SR leukemia = test system: SR leukemia

Compound | TGI (786-0 renal) [µM] | TGI (HOP-92 NSCLC) [µM] | TGI (HT29 colon) [µM] | TGI (M14 melanoma) [µM] | TGI (MDA-MB-435) [µM] | TGI (SK-MEL-5 melanoma) [µM] | TGI (SK-OV-3 ovarian) [µM] | TGI (SN12C renal) [µM] | TGI (SNB-75 CNS) [µM] | TGI (SR leukemia) [µM] | GI50 (786-0 renal) [µM] | GI50 (HOP-92 NSCLC) [µM] | GI50 (HT29 colon) [µM] | GI50 (M14 melanoma) [µM] | GI50 (MDA-MB-435) [µM] | GI50 (SK-MEL-5 melanoma) [µM] | GI50 (SK-OV-3 ovarian) [µM] | GI50 (SN12C renal) [µM] | GI50 (SNB-75 CNS) [µM] | GI50 (SR leukemia) [µM]
COc1cc(-c2[nH]ccc2Cl)oc1C1=C2N=C3C=C2C(C(C)C)C1CCCCCCCC3 (stereo not given) | 2.34 | 3.59 | 1.11 | 1.51 | 1.4 | 0.813 | 3.77 | 3 | 3.18 | 0.739 |  |  |  |  |  |  |  |  |  | 
COCCOC(=O)C1=C(C)NC2=C(C(=O)CC(c3ccccc3OC)C2)C1c1cccc(O)c1 (stereo not given) | 51.6 | 15.4 | 25.3 | 39.5 | 25.4 | 16.6 | 32.5 | > 100 | 30.9 | > 59.6 | 12.2 | 1.04 | 5.38 | 11.8 | 5.31 | 3.54 | 7.77 | 21.7 | 2.43 | 8.76
CCCCCCCCCCCCCCCc1cc(O)ccc1N | 37.2 | 93.7 | > 100 | > 100 | > 100 | > 100 | > 76.4 | > 100 | 68.9 | 23.4 | 2.77 | 12.4 | > 100 | > 100 | > 100 | > 100 | 31.7 | > 20.1 | 4.76 | 2.18
COC(CCP(=O)(c1ccccc1)c1ccccc1)(C(=O)c1ccccc1)c1ccccc1 (stereo not given) | 28 | 16.6 | 19.1 | 15.3 | 15 | 10.9 | 21.8 | 20 | 22 | > 100 | 10.3 | 1.42 | 4.65 | 3.5 | 3.64 | 2.39 | 8.05 | 5.23 | 5.76 | 0.967
COc1cc(OC)c2c(=O)c(O)c(-c3ccc(OC)c(OC)c3)oc2c1 | > 100 | 20.7 | > 100 | > 31.6 | > 31.6 | > 100 | > 100 | > 100 | > 100 | 19.2 |  |  |  |  |  |  |  |  |  | 
O=C1OC(c2ccc(O)c(-c3ccccc3)c2)(c2ccc(O)c(-c3ccccc3)c2)c2c(Cl)c(Cl)c(Cl)c(Cl)c21 | > 100 | > 100 | > 100 | > 100 | > 100 | > 100 | > 100 | > 100 | > 100 | > 100 |  |  |  |  |  |  |  |  |  | 
Cc1nn(C(=O)c2ccc(Cl)cc2)c2c1C(c1ccc([N+](=O)[O-])cc1)SC(N)=N2 (stereo not given) | > 10 | > 10 | > 10 | > 10 | > 10 | > 10 | > 10 | > 10 | > 10 | > 10 |  |  |  |  |  |  |  |  |  | 
[Cu+2].[O-]c1ccc2ccccc2c1N=Nc1ccccc1.[O-]c1ccc2ccccc2c1N=Nc1ccccc1 | > 100 | > 100 | > 100 | > 100 | > 100 | > 100 | > 100 | > 100 | > 100 | > 100 | 72.7 |  |  |  |  |  |  |  |  | 
COc1cccc(/C=N\Nc2ccc([N+](=O)[O-])cn2)c1O | 28.9 | 9.44 | > 100 | 25.9 | > 100 | 5.92 | 20.4 | 62 | 57.2 | > 100 | 3.53 | 2.8 | 28.8 | 3.34 | 5.23 | 1.76 | 2.94 | 4 | 8.78 | 3.03
COc1ccc(C(O)CNC(=O)c2ccccc2)cc1 (stereo not given) | > 100 | > 100 | > 100 | > 100 | > 100 | > 100 | > 100 | > 100 | > 100 | > 100 |  |  |  |  |  |  |  |  |  | 
CC(ONC(=O)c1cc(C(F)(F)F)cc(C(F)(F)F)c1)C(=O)Nc1ccc(Cl)cc1 (stereo not given) | 22 | 7.21 | 27.2 | 25.3 | 29.7 | 7.86 | > 85.8 | > 100 | 70.7 | 1.16 | 5.61 | 2.77 | 5.92 | 7.46 | 4.39 | 2.79 | 12.9 | 5.44 | 15 | 
COc1ccc2c(c1)c(C1(c3cn(C)c4ccc(OC)cc34)C(=O)Nc3ccc(F)cc31)cn2C | > 100 | 58.7 | 23 | 68.8 | > 100 | 18.9 | > 100 | 31.5 | > 100 | 82 | 6.51 | 3.84 | 3.52 | 4.19 | 3.77 | 5.64 | 12.9 | 4.82 | 3.09 | 5.59
O=S1(=O)CCN(Cc2ccccn2)CC1 | > 100 | > 100 | > 100 | > 100 | > 100 | > 100 | > 100 | > 100 | > 100 | > 100 |  |  |  |  |  |  |  |  |  | 
CC(=O)/C=C/C1=C(c2cc3ccccc3s2)c2ccccc2CC1 | > 100 | 62.6 | > 100 | 31.3 | 52.5 | 35.3 | > 100 | > 100 | > 100 | > 100 | 33.2 | 14.8 | 21 | 15.1 | 23 | 16.3 | 67.9 | 36.5 | 29.8 | 8.59
Cn1c(COC(=O)N2CCCCC2)nc2c(N3CCOCC3)nc(-c3ccccc3)nc21 | 2 | 1.93 | 1.59 | 1.89 | 1.86 | 2.79 | 10.5 | 2.17 | 2.18 | 2.34 | 0.732 | 0.492 | 0.417 | 0.509 | 0.58 | 1.47 | 2.64 | 0.868 | 0.817 | 0.287
